From patent publication US20040214803A1, “Use of vitamin d3 analogue for the treatment of autoimmune diabetes” (priority 2001, published 2004) come the findings set out here.

Molecules are shown by their SMILES.

In one experiment the test system is IL-12p75. Kind of experiment: LPS-induced IL-12 production in vivo (serum ELISA). Set-up: species or system mouse. The procedure:
Lymphokine production was induced in 8 week-old female NOD mice by i.p. injection of 400 μg/mouse Salmonella abortus equi LPS (Sigma). Compound A was administered 72, 48, 24, and 1 h prior to LPS. Blood samples were collected 3 h post LPS injection and serum cytokines measured by ELISA.
Cytokines were quantified by two-sites ELISA. IFN-γ was determined using paired mAb from PharMingen (San Diego, Calif.). For capture, the mAb was AN-18.17.24. Samples were titrated and incubated overnight at 4° C. To detect bound IFN-γ plates were then incubated with biotinylated XMG1.2 mAb. […] The plates were washed again and incubated with the developing substrate p-nitrophenylphosphate disodium (Sigma) in diethanolamine buffer (pH 9.6; 100 μl/well). The reaction was stopped by adding 50 μl/well NaOH 3N, and absorbance was read at 405 nm. ELISA for IL-12p75 was performed as described (Gately, M. K., et al., Current Protocols Immunol. 1995, 3, 15:6.16.11-16.16.15). Cytokines were quantified from two to three titration points using standard curves generated by purified recombinant mouse cytokines and results expressed as cytokine concentration in ng or pg/ml. Detection limits were 15 pg/ml for both cytokines. […]
FIG. 3. […] IFN-γ, IL-12p75 and serum calcium levels were quantified 3 h post LPS injection. […] The P values were calculated by Mann-Whitney U test (* indicates P<0.05 vs. vehicle-treated NOD mice).

Another experiment has as its system CD4+ cells. Kind of experiment: Proliferation and IFN-γ secretion of CD4+ cells following TCR ligation. In kind it is in vivo, mouse. The procedure: Single cell suspensions from pancreatic lymph nodes or spleen were incubated with anti-CD4 mab-coated Microbeads (Miltenyi Biotec) and applied onto Mini-MACS columns (Miltenyi Biotec). Purified CD4^+ cells (6×10^5/well) were cultured for 48 h in round-bottom 96-well plates (Costar) pre-coated with 3 μg/ml purified anti-TCR mAb (ATCC HB 218; American Type Culture Collection, Manassas, Va.) with or without 100 U/ml IL-2 and/or 10 μg/ml anti-CD28 mAb. Cultures were performed in synthetic HL-1 medium (Ventrex Laboratories, Portland, Me.) supplemented with 2 mM L-glutamine and 50 μg/ml gentamicin (Sigma). To measure cell proliferation, cultures were pulsed 8 h before harvesting with 1 μCi [^3H]TdR ([…]; Radiochemical Center, Amersham, U.K.). Incorporation of [^3H]TdR was measured by liquid scintillation spectrometry. Alternatively, splenic or pancreatic lymph node CD4^+CD25^+ and CD4^+CD25^− cells were sorted with MultiSort Kit (Miltenyi Biotec, Auburn, Calif.).
Cytokines were quantified by two-sites ELISA. IFN-γ was determined using paired mAb from PharMingen (San Diego, Calif.). For capture, the mAb was AN-18.17.24. Samples were titrated and incubated overnight at 4° C. To detect bound IFN-γ plates were then incubated with biotinylated XMG1.2 mAb. […] The plates were washed again and incubated with the developing substrate p-nitrophenylphosphate disodium (Sigma) in diethanolamine buffer (pH 9.6; 100 μl/well). The reaction was stopped by adding 50 μl/well NaOH 3N, and absorbance was read at 405 nm. ELISA for IL-12p75 was performed as described (Gately, M. K., et al., Current Protocols Immunol. 1995, 3, 15:6.16.11-16.16.15). Cytokines were quantified from two to three titration points using standard curves generated by purified recombinant mouse cytokines and results expressed as cytokine concentration in ng or pg/ml. Detection limits were 15 pg/ml for both cytokines.
FIG. 5. (page 5/9) Proliferation and IFN-γ secretion following TCR ligation. Splenic and pancreatic lymph node CD4^+ cells from untreated 8 week-old (□) or 20 week-old NOD mice treated 5×/week from 8 to 16 weeks of age with vehicle (□) or with 0.03 μg/KgCompound A (▪) were positively selected and stimulated (6×10^5 cells/well) with plate-bound anti-TCR mAb (10 μg/ml) in the presence of 100 U/ml IL-2 and/or 5 μg/ml anti-CD28 mAb. A. Cells were pulsed with [^3H]-thymidine during the last 8 hrs of a 48 h culture. Data are presented as mean ±SE of thymidine incorporation (Δ cpm) from triplicate cultures, background values were 790±100 cpm. B. After 48 h of culture, IFN-γ secretion was quantified by ELISA. Results, presented as mean ±SE of triplicate cultures, are from one representative experiment out of four performed.

Where [1] appears, read: pancreatic lymph node CD4+ cells.
Where [2] appears, read: pancreatic lymph node CD4+ cells from 20 week-old mice.

`C[C@H](C/C=C\C(O)(C(F)(F)F)C(F)(F)F)C1=CC[C@H]2/C(=C/C=C3C[C@@H](O)C[C@H](O)C3)CCC[C@]12C` [Compound A, 1,25-dihydroxy-16,23Z-diene-26,27-hexafluoro-19-nor vitamin D3]: the “LPS-induced IL-12p75 production” value with IL-12p75 (0.03 μg/Kg per os 72, 48, 24, 1 h before LPS, serum 3 h post LPS) is recorded as “inhibited significantly”. The “potency in inhibiting LPS-induced IL-12p75 and IFN-γ production relative to 1,25(OH)2D3” value in the experiment with IL-12p75 (higher than 1,25(OH)2D3 (literature comparison)) is listed as “about 100 fold”. Further, in the experiment with CD4+ cells (setting [1]), the “IFN-γ secretion after addition of IL-2 and/or anti-CD28 mAb” value is given as “restored” and the “proliferation after addition of IL-2, alone or together with anti-CD28 mAb” value was “not restored”. For the same compound, in the experiment with CD4+ cells (setting [2]), the “proliferation to insolubilized anti-TCR mAb vs age-matched controls” value is recorded as “four times less” and the “proliferation to insolubilized anti-TCR mAb vs cells from 8 week-old mice” value is given as 10 times less.
